The subject of assay [1] is Phosphorylation of ERK1/2 in AsPC-1 cells. Kind of assay: Phospho-ERK1/2 MSD Assay (AsPC-1 cells). The assay is classed as cell-based. Conditions: Homo sapiens, read-out: p-ERK (AsPC-1 cells) IC50. The method, then: AsPC-1 (ATCC® CRL-1682™) cells were cultured in RPMI 1640 Medium (ThermoFisher Scientific 11875093) containing 10% fetal bovine serum (ThermoFisher Scientific 16000044) and 1× penicillin-streptomycin-glutamine (ThermoFisher Scientific 10378016). Sixteen hours prior to compound treatment, AsPC-1 cells were seeded in 96-well cell culture plates at a density of 25,000 cells/well and incubated at 37° C., 5% CO2. A compound dose-response titration was diluted in growth media, added to appropriate wells of a cell culture plate, and then incubated at 37° C., 5% CO2 for 2 hours. Following compound treatment, cells were washed with ice-cold Dulbecco's phosphate-buffered saline, no Ca^2+ or Mg^2+ (ThermoFisher Scientific 14190144), and then lysed in RIPA buffer (50 mM Tris-HCl pH 7.5, 1% Igepal, 0.5% sodium deoxycholate, 150 mM NaCl, and 0.5% sodium dodecyl sulfate) containing protease inhibitors (Roche 4693132001) and phosphatase inhibitors (Roche 4906837001). Phosphorylation of ERK1/2 in compound-treated lysates was assayed using Phospho-ERK1/2 Whole Cell Lysate kits (Meso Scale Discovery K151DWD) according to the manufacturer's protocol. Assay plates were read on a Meso Scale Discovery Sector Imager 6000, and data were analyzed using a 4-parameter logistic model to calculate IC50 values.

The target in assay [2] is GDP-bound KRAS protein (aa 1-169), containing both G12D and C118A amino acid substitutions (Homo sapiens, UniProt P01116, C118A/G12D). Kind of assay: KRAS G12D Coupled Nucleotide Exchange Assay. Type of assay: biochemical. Conditions: 2 h compound pre-incubation. The method, then:
Following compound pre-incubation, purified SOS protein (aa 564-1049) and GTP (Roche 10106399001) were added to the assay wells and incubated for an additional 30 min. […] The assay plates were then read on a PerkinElmer EnVision Multilabel Reader, using AlphaScreen® technology, and data were analyzed using a 4-parameter logistic model to calculate IC50 values.

The target of assay [3] is His-tagged KRAS G12D protein (Homo sapiens, UniProt P01116, G12D). In words: KRAS G12D TR-FRET Assay. The assay is classed as binding. The method, then:
Compounds of interest were prepared in a dose-response titration in DMSO, and 80 nL were added via Labcyte Echo to each well of a 384-well plate (Perkin Elmer 6008280). […] The plate was incubated for 30 minutes at room temperature. Biotinylated KRPep-2d substrate (Amgen) was diluted to 20 nM in Assay Buffer and 2 μL was added to all wells and incubated for 1 h at room temperature. Detection Reagent (0.4 nM LANCE Eu-W1024 Anti-6xHis (Perkin Elmer AD0401), 5 nM streptavidin-d2 (Cisbio 610SADLA)) was prepared in Assay Buffer, then 4 μL was added to the plate and incubated for 1 h at room temperature. Plates were read using PerkinElmer EnVision (ex: 320 nm, em1: 665 nm, em2: 615 nm) and em1/em2 data was used to generate curve fits using a 4-parameter logistic model to calculate IC50 values.
(Time-resolved FRET reads energy transfer from a long-lived donor to a nearby acceptor.)

Molecules are shown by their SMILES. Like-named read-outs stand apart in the source and are kept apart here.

GDP-bound KRAS protein (aa 1-169), containing both G12D and C118A amino acid substitutions, sequence (P01116 1-169 isoform P01116-2 G12D/C118A): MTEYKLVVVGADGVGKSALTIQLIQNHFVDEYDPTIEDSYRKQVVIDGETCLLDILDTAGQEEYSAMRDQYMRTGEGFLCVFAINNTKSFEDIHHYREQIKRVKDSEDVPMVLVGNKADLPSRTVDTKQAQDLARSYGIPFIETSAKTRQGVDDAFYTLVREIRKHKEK
His-tagged KRAS G12D protein, sequence (P01116 1-188 isoform P01116-2 G12D): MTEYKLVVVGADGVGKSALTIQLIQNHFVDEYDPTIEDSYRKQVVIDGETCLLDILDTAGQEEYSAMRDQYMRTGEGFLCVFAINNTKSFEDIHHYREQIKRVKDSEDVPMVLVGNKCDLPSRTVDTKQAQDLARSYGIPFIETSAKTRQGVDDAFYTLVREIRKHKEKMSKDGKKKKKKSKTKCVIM

In general, IC50 refers to the midpoint of a concentration-inhibition curve. As to `CCc1c(F)ccc2cc(O)cc(-c3c(O)cc4c(N5CC6CCC(C5)N6)nc(OCC56CCCN5C[C@H](F)C6)nc4c3F)c12` (atropisomer, axis not shown; (M)) [Example 234, (M)-4-((1R,5S)-3,8-Diazabicyclo[3.2.1]octan-3-yl)-7-(8-ethyl-7-fluoro-3-hydroxynaphthalen-1-yl)-8-fluoro-2-(((2R,7aS)-2-fluorotetrahydro-1H-pyrrolizin-7a(5H)-yl)methoxy)quinazolin-6-ol], the half-maximal inhibitory concentration (IC50) in assay [1] (ASPC1, 2 h, 2 hours treatment) stood at 22 nM; in assay [3], 1 nM. In addition, the “Avg 2 h Coupled Exchange IC50” value in assay [2] was 2 nM.

With `Oc1cc(-c2ccc3c(N4C[C@H]5COC[C@@H](C4)N5)nc(OC[C@@]45CCCN4C[C@H](F)C5)nc3c2F)c2ccccc2c1` [Example 16, 4-(4-((1R,5S)-3-oxa-7,9-diazabicyclo[3.3. 1]nonan-7-yl)-8-fluoro-2-(((2R,7aS)-2-fluorotetrahydro-1H-pyrrolizin-7a(5H)-yl)methoxy)quinazolin-7-yl)naphthalen-2-ol], the 50% inhibitory concentration (IC50) was 4820 nM in assay [1] (ASPC1, 2 h, 2 hours treatment) and 20 nM in assay [3]. For the same compound, in assay [2], the “Avg 2 h Coupled Exchange IC50” value is 7 nM.

Turning to `Oc1cc(-c2ccc3c(N4[C@@H]5CC[C@H]4CNC5)nc(OC[C@@]45CCCN4C[C@H](F)C5)nc3c2F)c2cnccc2c1` [Example 31, 8-(4-((1R,5S)-3,8-diazabicyclo[3.2. 1]octan-8-yl)-8-fluoro-2-(((2R,7aS)-2-fluorotetrahydro-1H-pyrrolizin-7a(5H)-yl)methoxy)quinazolin-7-yl)isoquinolin-6-ol], the “Avg 2 h Coupled Exchange IC50” value in assay [2] stood at 259 nM. In assay [3], this compound had an IC50 of 546 nM.

As for `Oc1ccc(Cl)c(-c2ccc3c(N4[C@@H]5CC[C@H]4CNC5)nc(OC[C@@]45CCCN4C[C@H](F)C5)nc3c2)c1F` [Example 35, 3-(4-((1R,5S)-3,8-diazabicyclo[3.2. 1]octan-8-yl)-2-(((2R,7aS)-2-fluorotetrahydro-1H-pyrrolizin-7a(5H)-yl)methoxy)quinazolin-7-yl)-4-chloro-2-fluorophenol], in assay [2], the “Avg 2 h Coupled Exchange IC50” value is 1820 nM. The same compound gave an IC50 in assay [3] of 4700 nM.

For `N#Cc1c(OC[C@@]23CCCN2C[C@H](F)C3)nc2c(F)c(-c3cc(O)cc4ccccc34)c(Cl)cc2c1N1C[C@H]2CC[C@@H](C1)N2` [Example 61, 4-((1R,5S)-3,8-diazabicyclo[3.2. 1]octan-3-yl)-6-chloro-8-fluoro-2-(((2R,7aS)-2-fluorotetrahydro-1H-pyrrolizin-7a(5H)-yl)methoxy)-7-(3-hydroxynaphthalen-1-yl)quinoline-3-carbonitrile], the “Avg 2 h Coupled Exchange IC50” value in assay [2] was 1670 nM. The IC50 in assay [3] stood at 2560 nM.

In the case of `N#Cc1c(OC[C@@]23CCCN2C[C@H](F)C3)nc2c(F)c(-c3cc(O)cc4ccccc34)ccc2c1N1C[C@H]2CC[C@@H](C1)N2` [Example 62, 4-((1R,5S)-3,8-diazabicyclo[3.2. 1]octan-3-yl)-8-fluoro-2-(((2R,7aS)-2-fluorotetrahydro-1H-pyrrolizin-7a(5H)-yl)methoxy)-7-(3-hydroxynaphthalen-1-yl)quinoline-3-carbonitrile], in assay [2], the “Avg 2 h Coupled Exchange IC50” value stood at 1170 nM. Moreover, the midpoint of inhibition in assay [3], the IC50, lay at 2650 nM.

For `CN1C[C@H](F)C[C@H]1COc1nc2c(F)c(-c3cc(O)cc4ccccc34)c(Cl)cc2c(N2C[C@H]3CC[C@@H](C2)N3)c1C#N` [Example 63, 4-((1R,5S)-3,8-diazabicyclo[3.2. 1]octan-3-yl)-6-chloro-8-fluoro-2-(((2S,4R)-4-fluoro-1-methylpyrrolidin-2-yl)methoxy)-7-(3-hydroxynaphthalen-1-yl)quinoline-3-carbonitrile], the “Avg 2 h Coupled Exchange IC50” value in assay [2] was 555 nM. The IC50 in assay [3] is greater than 25000 nM.

With `Cn1ncc2cccc(-c3ccc4c(N5C[C@H]6CC[C@@H](C5)N6)nc(OC[C@@]56CCCN5C[C@H](F)C6)nc4c3)c21` [Example 66, 4-((1R,5S)-3,8-diazabicyclo [3.2. 1]octan-3-yl)-2-(((2R,7aS)-2-fluorotetrahydro-1H-pyrrolizin-7a(5H)-yl)methoxy)-7-(1-methyl-1H-indazol-7-yl)quinazoline], the “Avg 2 h Coupled Exchange IC50” value in assay [2] amounted to 300 nM. Also, half-maximal inhibition in assay [3] (IC50) required 940 nM.

Consider `Cc1ccc2cn[nH]c2c1-c1ccc2c(N3C[C@H]4CC[C@@H](C3)N4)nc(OC[C@@]34CCCN3C[C@H](F)C4)nc2c1` [Example 67, 4-((1R,5S)-3,8-diazabicyclo[3.2. 1]octan-3-yl)-2-(((2R,7aS)-2-fluorotetrahydro-1H-pyrrolizin-7a(5H)-yl)methoxy)-7-(6-methyl-1H-indazol-7-yl)quinazoline], for which, in assay [2], the “Avg 2 h Coupled Exchange IC50” value came to 199 nM. Moreover, the 50% inhibitory concentration (IC50) in assay [3] was determined as 512 nM.

With `Oc1cc(-c2c(F)cc3c(N4[C@@H]5CC[C@H]4CNC5)nc(OC[C@@]45CCCN4C[C@H](F)C5)nc3c2O)c2ccccc2c1` [Example 102, 4-((1R,5S)-3,8-Diazabicyclo[3.2.1]octan-8-yl)-6-fluoro-2-(((2R,7aS)-2-fluorotetrahydro-1H-pyrrolizin-7a(5H)-yl)methoxy)-7-(3-hydroxynaphthalen-1-yl)quinazolin-8-ol], the IC50 was determined as 10100 nM in assay [1] (ASPC1, 2 hours treatment) and 144 nM in assay [3]. For the same compound, the “Avg 2 h Coupled Exchange IC50” value in assay [2] was 55 nM.

`CN1C[C@H](F)C[C@H]1COc1nc(N2[C@@H]3CC[C@H]2CNC3)c2cc(F)c(-c3cc(O)cc4ccccc34)c(O)c2n1` [Example 103, 4-((1R,5S)-3,8-diazabicyclo[3.2.1]octan-8-yl)-6-fluoro-2-(((2S,4R)-4-fluoro-1-methylpyrrolidin-2-yl)methoxy)-7-(3-hydroxynaphthalen-1-yl)quinazolin-8-ol]: the “Avg 2 h Coupled Exchange IC50” value in assay [2] stood at 517 nM. Besides, the IC50 in assay [3] came out at 1080 nM.

As to `C=Cc1c(F)ccc2cccc(-c3ccc4c(N5[C@@H]6CC[C@H]5CNC6)nc(OC[C@@]56CCCN5C[C@H](F)C6)nc4c3)c12` [Example 104, 4-((1R,5S)-3,8-diazabicyclo[3.2.1]octan-8-yl)-7-(7-fluoro-8-vinylnaphthalen-1-yl)-2-(((2R,7aS)-2-fluorotetrahydro-1H-pyrrolizin-7a(5H)-yl)methoxy)quinazoline], in assay [2], the “Avg 2 h Coupled Exchange IC50” value came out at 2300 nM. In assay [3], the IC50 was determined as 544 nM.

For `Oc1cc(-c2ccc3c(C4=CC5CCC(C4)N5)nc(OC[C@@]45CCCN4C[C@H](F)C5)nc3c2)c2ccccc2c1` (some centres unmarked) [Example 108], the IC50 in assay [1] (ASPC1, 2 h, 2 hours treatment) is 420 nM; in assay [3], 11700 nM. For the same compound, in assay [2], the “Avg 2 h Coupled Exchange IC50” value was 671 nM.

In the case of `CCc1c(F)ccc2cc(O)cc(-c3ccc4c(N5C[C@@H]6CC[C@](F)(C5)N6)nc(OC[C@@]56CCCN5C[C@H](F)C6)nc4c3F)c12` [Example 178, 5-ethyl-6-fluoro-4-(8-fluoro-4-((1S,5S)-1-fluoro-3,8-diazabicyclo[3.2.1]octan-3-yl)-2-(((2R,7aS)-2-fluorotetrahydro-1H-pyrrolizin-7a(5H)-yl)methoxy)quinazolin-7-yl)naphthalen-2-ol], the IC50 in assay [1] (ASPC1, 2 h, 2 hours treatment) worked out at 143 nM; in assay [3] it was 3 nM. For the same compound, the “Avg 2 h Coupled Exchange IC50” value in assay [2] was 5 nM.

As for `CCc1c(F)ccc2cc(O)cc(-c3ccc4c(N5C[C@H]6CC[C@@](F)(C5)N6)nc(OC[C@@]56CCCN5C[C@H](F)C6)nc4c3F)c12` [Example 179, 5-ethyl-6-fluoro-4-(8-fluoro-4-((1R,5R)-1-fluoro-3,8-diazabicyclo[3.2.1]octan-3-yl)-2-(((2R,7aS)-2-fluorotetrahydro-1H-pyrrolizin-7a(5H)-yl)methoxy)quinazolin-7-yl)naphthalen-2-ol], the half-inhibitory concentration (IC50) in assay [1] (ASPC1, 2 h, 2 hours treatment) was 46 nM; in assay [3], 2 nM. For the same compound, the “Avg 2 h Coupled Exchange IC50” value in assay [2] is 4 nM.

On to `CCc1c(F)ccc2cc(O)cc(-c3ccc4c(N5C[C@H]6CC[C@@H](C5)N6)cc(OC[C@@]56CCCN5C[C@H](F)C6)nc4c3)c12` [Example 210, 4-(4-((1R,5S)-3,8-Diazabicyclo[3.2.1]octan-3-yl)-2-(((2R,7aS)-2-fluorotetrahydro-1H-pyrrolizin-7a(5H)-yl)methoxy)quinolin-7-yl)-5-ethyl-6-fluoronaphthalen-2-ol], for which the “Avg 2 h Coupled Exchange IC50” value in assay [2] was found to be 69 nM. In addition, the IC50 in assay [3] stood at 44 nM.

The values above are taken from patent US20250059205A1, “Heterocyclic Compounds and Methods of Use” (AMGEN INC., priority 2021, published 2025).
